Test results published in patent US20260256792A1, “TREATMENT OF CHRONIC SPONTANEOUS URTICARIA BY ADMINISTERING (R)-2-[3-[4-AMINO-3-(2-FLUORO-4-PHENOXY-PHENYL)PYRAZOLO[3,4-D]PYRIMIDIN-1-YL]PIPERIDINE-1-CARBONYL]-4-METHYL-4-[4-(OXETAN-3-YL)PIPERAZIN-1-YL]PENT-2-ENENITRILE” (priority 2023, published 2026).

System: moderate-to-severe chronic spontaneous urticaria (CSU)
Assay: Phase 2 CSU study: hives severity score over 7 days (HSS7)
Format: in vivo, human
Parameters: key to HSS7 Change from baseline, Median / HSS7, Median / HSS7, Max / HSS7 Change from baseline, Q1 / HSS7 Change from baseline, Q3 / HSS7 Change from baseline, Max: 7-day sum of daily hive scores, each 0 = none to 3 = >50 hives
Description: The study comprises a 12 week, randomized, double-blind, placebo-controlled, multi-center, dose-ranging efficacy and safety phase, followed by a 40 week open label extension (OLE) phase (see FIG. 1).
The study consists of three phases and an optional OLE phase.
The UAS is a validated PRO measure. The daily UAS is the sum of the daily Hive Severity Score (HSS, ranging from 0=None to 3=more than 50 hives) and the daily Itch Severity Score (ISS, ranging from 0=None to 3=intense), the 2 key urticaria signs and symptoms which are wheals and itch. The daily UAS scores range from 0 to 6 point/day. Daily UAS scores are summed over 7-day period to create the UAS7, ranging from 0 to 42, and are composed of the HSS7 and ISS7 components. […] Patients were to complete the UAS using the e-diary. The e-diary was to be used once daily on the same time of each day recording of participant's answers to the urticaria activity score over 7 days (UAS7) questionnaire. For participants who entered the OLE phase, their answers to the UAS7 questionnaire were also to be collected from Week 20 to Week24 and from Week 48 to Week 52.
The following secondary endpoints were to be analyzed using the same approach as for the primary endpoint: • Change from baseline in UAS7 at Week 4 • Change from baseline in UAS7 at Week 12 (for US and US reference countries) • Change from baseline in ISS7 at Week 12 (except US and US reference countries) • Change from baseline in HSS7 at Week 12

[1] = Week 10, 400 mg BID, Omalizumab-Naïve Population
[2] = Week 10, 400 mg BID, Patients with Prior Omalizumab Use
[3] = Week 10, 400 mg QPM, Omalizumab-Naïve Population
[4] = Week 10, 400 mg QPM, Patients with Prior Omalizumab Use
[5] = Week 10, 400 mg TID, Omalizumab-Naïve Population
[6] = Week 10, 400 mg TID, Patients with Prior Omalizumab Use
[7] = Week 11, 400 mg BID, Omalizumab-Naïve Population
[8] = Week 11, 400 mg BID, Patients with Prior Omalizumab Use
[9] = Week 11, 400 mg QPM, Omalizumab-Naïve Population
[10] = Week 11, 400 mg QPM, Patients with Prior Omalizumab Use
[11] = Week 11, 400 mg TID, Omalizumab-Naïve Population
[12] = Week 11, 400 mg TID, Patients with Prior Omalizumab Use
[13] = Week 12, 400 mg BID, Omalizumab-Naïve Population
[14] = Week 12, 400 mg BID, Patients with Prior Omalizumab Use
[15] = Week 12, 400 mg QPM, Omalizumab-Naïve Population
[16] = Week 12, 400 mg QPM, Patients with Prior Omalizumab Use
[17] = Week 12, 400 mg TID, Omalizumab-Naïve Population
[18] = Week 12, 400 mg TID, Patients with Prior Omalizumab Use

SMILES: CC(C)(C=C(C#N)C(=O)N1CCC[C@@H](n2nc(-c3ccc(Oc4ccccc4)cc3F)c3c(N)ncnc32)C1)N1CCN(C2COC2)CC1 [rilzabrutinib, (R)-2-[3-[4-amino-3-(2-fluoro-4-phenoxy-phenyl)pyrazolo[3,4-d]pyrimidin-1-yl]piperidine-1-carbonyl]-4-methyl-4-[4-(oxetan-3-yl)piperazin-1-yl]pent-2-enenitrile]
- HSS7, Median [1]: 6.50
- HSS7 Change from baseline, Mean (SD) [1]: −6.95 (5.65)
- HSS7 Change from baseline, Median [1]: −6.50
- HSS7 Percent change from baseline, Mean (SD) [1]: −53.45 (42.56) %
- HSS7 Percent change from baseline, Median [1]: −47.73%
- HSS7, Mean (SD) [2]: 5.20 (7.19)
- HSS7, Median [2]: 2.00
- HSS7 Change from baseline, Mean (SD) [2]: −9.60 (9.13)
- HSS7 Change from baseline, Median [2]: −12.00
- HSS7 Percent change from baseline, Mean (SD) [2]: −58.10 (53.18) %
- HSS7 Percent change from baseline, Median [2]: −90.48%
- HSS7, Mean (SD) [3]: 9.88 (5.93)
- HSS7, Median [3]: 8.00
- HSS7 Change from baseline, Mean (SD) [3]: −5.27 (5.66)
- HSS7 Change from baseline, Median [3]: −4.00
- HSS7 Percent change from baseline, Mean (SD) [3]: −33.86 (34.68) %
- HSS7 Percent change from baseline, Median [3]: −28.64%
- HSS7, Mean (SD) [4]: 8.00 (NC)
- HSS7, Median [4]: 8.00
- HSS7 Change from baseline, Mean (SD) [4]: −12.00 (NC)
- HSS7 Change from baseline, Median [4]: −12.00
- HSS7 Percent change from baseline, Mean (SD) [4]: −60.00 (NC) %
- HSS7 Percent change from baseline, Median [4]: −60.00%
- HSS7, Mean (SD) [5]: 5.87 (5.06)
- HSS7, Median [5]: 4.50
- HSS7 Change from baseline, Mean (SD) [5]: −8.20 (5.62)
- HSS7 Change from baseline, Median [5]: −9.00
- HSS7 Percent change from baseline, Mean (SD) [5]: −57.32 (34.80) %
- HSS7 Percent change from baseline, Median [5]: −63.10%
- HSS7, Mean (SD) [6]: 3.00 (4.65)
- HSS7, Median [6]: 1.00
- HSS7 Change from baseline, Mean (SD) [6]: −13.03 (7.21)
- HSS7 Change from baseline, Median [6]: −13.00
- HSS7 Percent change from baseline, Mean (SD) [6]: −79.31 (25.96) %
- HSS7 Percent change from baseline, Median [6]: −91.50%
- HSS7, Mean (SD) [7]: 7.13 (7.07)
- HSS7, Median [7]: 5.83
- HSS7 Change from baseline, Mean (SD) [7]: −7.34 (6.14)
- HSS7 Change from baseline, Median [7]: −7.00
- HSS7 Percent change from baseline, Mean (SD) [7]: −52.82 (41.27) %
- HSS7 Percent change from baseline, Median [7]: −54.55%
- HSS7, Mean (SD) [8]: 4.80 (7.46)
- HSS7, Median [8]: 0.00
- HSS7 Change from baseline, Mean (SD) [8]: −10.00 (9.67)
- HSS7 Change from baseline, Median [8]: −12.00
- HSS7 Percent change from baseline, Median [8]: −100.00%
- HSS7, Mean (SD) [9]: 10.18 (6.18)
- HSS7, Median [9]: 9.33
- HSS7 Change from baseline, Mean (SD) [9]: −5.18 (5.64)
- HSS7 Change from baseline, Median [9]: 3.00
- HSS7 Percent change from baseline, Mean (SD) [9]: −33.21 (36.21) %
- HSS7 Percent change from baseline, Median [9]: −30.00%
- HSS7, Mean (SD) [10]: 9.00 (NC)
- HSS7, Median [10]: 9.00
- HSS7 Change from baseline, Mean (SD) [10]: −11.00 (NC)
- HSS7 Change from baseline, Median [10]: −11.00
- HSS7 Percent change from baseline, Mean (SD) [10]: −55.00 (NC) %
- HSS7 Percent change from baseline, Median [10]: −55.00%
- HSS7, Mean (SD) [11]: 6.17 (5.40)
- HSS7, Median [11]: 5.83
- HSS7 Change from baseline, Mean (SD) [11]: −7.90 (6.07)
- HSS7 Change from baseline, Median [11]: −8.00
- HSS7 Percent change from baseline, Mean (SD) [11]: −55.30 (37.59) %
- HSS7 Percent change from baseline, Median [11]: −61.11%
- HSS7, Mean (SD) [12]: 2.67 (4.84)
- HSS7, Median [12]: 0.00
- HSS7 Change from baseline, Mean (SD) [12]: −13.36 (7.26)
- HSS7 Change from baseline, Median [12]: −13.00
- HSS7 Percent change from baseline, Mean (SD) [12]: −82.14 (27.76) %
- HSS7 Percent change from baseline, Median [12]: −100.00%
- HSS7, Mean (SD) [13]: 7.52 (7.21)
- HSS7, Median [13]: 7.00
- HSS7 Change from baseline, Mean (SD) [13]: −7.09 (6.54)
- HSS7 Change from baseline, Median [13]: −4.50
- HSS7 Percent change from baseline, Mean (SD) [13]: −49.56 (40.81) %
- HSS7 Percent change from baseline, Median [13]: −37.50%
- HSS7, Mean (SD) [14]: 4.25 (8.50)
- HSS7, Median [14]: 0.00
- HSS7 Change from baseline, Median [14]: −14.50
- HSS7 Percent change from baseline, Mean (SD) [14]: −75.00 (50.00) %
- HSS7 Percent change from baseline, Median [14]: −100.00%
- HSS7, Median [15]: 8.58
- HSS7 Change from baseline, Mean (SD) [15]: −4.85 (5.63)
- HSS7 Change from baseline, Median [15]: −4.00
- HSS7 Percent change from baseline, Mean (SD) [15]: −31.20 (34.88) %
- HSS7 Percent change from baseline, Median [15]: −33.18%
- HSS7, Mean (SD) [16]: 9.00 (NC)
- HSS7, Median [16]: 9.00
- HSS7 Change from baseline, Mean (SD) [16]: −11.00 (NC)
- HSS7 Change from baseline, Median [16]: −11.00
- HSS7 Percent change from baseline, Mean (SD) [16]: −55.00 (NC) %
- HSS7 Percent change from baseline, Median [16]: −55.00%
- HSS7, Mean (SD) [17]: 5.23 (4.86)
- HSS7, Median [17]: 4.08
- HSS7 Change from baseline, Mean (SD) [17]: −8.77 (5.84)
- HSS7 Change from baseline, Median [17]: −8.00
- HSS7 Percent change from baseline, Mean (SD) [17]: −60.93 (34.27) %
- HSS7 Percent change from baseline, Median [17]: −64.29%
- HSS7, Mean (SD) [18]: 3.20 (5.22)
- HSS7, Median [18]: 0.00
- HSS7 Change from baseline, Mean (SD) [18]: −14.40 (7.60)
- HSS7 Change from baseline, Median [18]: −17.00
- HSS7 Percent change from baseline, Mean (SD) [18]: −78.57 (29.45) %
- HSS7 Percent change from baseline, Median [18]: −100.00%
